Measured values as given in patent publication US20180369241A1, “TREATMENT OF CANCER WITH DNAPK INHIBITORS” (Celgene Corporation, priority 2015, published 2018).

How the values were obtained:
[1] = system: PC3 xenograft tumors; assay: PC3 xenograft tumor growth; type: in vivo
Source text: (§1) FIG. 10 provides: Body weight measurements of LNCaP-AR xenograft mice after treatment with NU7441 (panel A); Growth curves of VCaP xenograft tumors with various doses of Compound 1 (administered once daily via oral gavage, 5 times per week for 6 weeks) or vehicle (panel B); Body weight measurements of VCaP xenograft mice after treatment with various Compound 1 doses (panel C); and Growth curves of PC3 xenograft tumors treated with Compound 1 or vehicle (panel D). All graphs are mean±S.E.M. *=p<0.05 compared to vehicle.

[2] = system: LNCaP-AR xenografts; type: in vivo; conditions: for median tumor tripling time: enzalutamide 10 mg/kg, Compound 1 2 mg/kg, vehicle 15 days
Procedure: (§2) FIG. 6 provides: Growth curves of LNCaP-AR xenografts in castrated mice treated daily with vehicle (black, n=5) or 25 mg/kg NU7441 (gray, n=6) (panel A); Fold change in final tumor volume (panel B); Kaplan-Meier curves of freedom from tumor doubling time with vehicle or NU7441 (25 mg/kg) treatment of LNCaP-AR xenograft tumors (panel C); Growth curves of LNCaP-AR xenograft tumors with 5 times weekly oral gavage enzalutamide (10 mg/kg, n=16), Compound 1 (2 mg/kg, n=14), Compound 1+enzalutamide (n=14), or vehicle (n=14) treatment. Bar graph represents change in final tumor volume compared to starting tumor volume (panel D); Kaplan-Meier curves of freedom from tumor tripling with enzalutamide, Compound 1, enzalutamide+Compound 1, or vehicle treatment of LNCaP-AR xenograft tumors (panel E); Expression of select Wnt pathway target genes in human primary prostate tumor explants treated with NU7441 (n=6) or vehicle (panel F); and Representative images of Ki67 immunostaining of human primary prostate tumor explants treated with NU7441 (n=6) or vehicle; Ki67-positive nuclei are indicated with arrows (panel G). All graphs are mean±S.E.M. *=p<0.05 compared to respective control, #=p<0.05 for enzalutamide compared to Compound 1+enzalutamide, **=p<0.01 for Compound 1 compared to vehicle.
as §1

[3] = system: C4-2 cells; assay: Boyden chamber migration and invasion assay, crystal violet quantification; type: cell-based
Source text: (§3) FIG. 2 provides: Representative images (200×) and crystal violet quantification of migration (panel A) and invasion (panel B) of C4-2, LNCaP-AR and PC3 cells in Boyden chamber assays after DNAPK knockdown (siRNA) or inhibition (NU7441); C4-2, LNCaP-AR and PC3 cell growth curves after DNAPK inhibition (NU7441) (panel C) or knockdown (siRNA) (panel D); and DNAPK knockdown by siRNA relative to non-targeting (siNTC) control (panel E). *p<0.05, […] compared to respective controls. All graphs are mean±S.D.
(§4) FIG. 4 provides: Expression of Wnt pathway genes after DNAPK knockdown (panel A) or inhibition (NU7441) (panel B) in LNCaP-AR cells; Immunoblot analyses of DNAPK, phospho-DNAPK (pDNAPK), active beta catenin (βcatenin), and cMyc levels in LNCaP-AR and C4-2 cells after DNAPK knockdown (siDNAPK) or inhibition (NU7441) with or without Wnt3A stimulation (panels C-D); Representative images (200×) and crystal violet quantification of LNCaP-AR and C4-2 cell invasion and migration after DNAPK inhibition (NU7441 or Compound 1) with or without Wnt3A stimulation (panel E); and Representative images (200×) and crystal violet quantification of enzalutamide-resistant LNCaP-AR (LNCaP-AR-enza-res) cell invasion and migration after DNAPK inhibition (NU7441 or Compound 1) or continued enzalutamide treatment (Enza) (panel F). All graphs are mean±S.D. *=p<0.05 compared to respective controls. Enza=enzalutamide. Enza-res=enzalutamide resistant. RQ=relative quantity. siNTC=non-targeting siRNA control.

[4] = system: LNCaP-AR cells; assay: as above; type: cell-based
Source text: as §3, §4

[5] = system: LNCaP-AR-MDVR cells; assay: Invasion and migration of enzalutamide-resistant LNCaP-AR cells, crystal violet quantification; type: cell-based
Source text: as §4
FIG. 9 provides: Expression of Wnt pathway target genes in LNCaP-AR cells grown in enzalutamide until resistance (LNCaP-AR-enza-res) relative to LNCaP-AR cells grown in vehicle (DMSO) (panel A); and Expression of AR or AR-target genes FKBP5 and KLK3 (PSA) in LNCaP-AR-enza-res cells after treatment with 10 μM enzalutamide (panel B). GAPDH was used as internal reference, bars are mean±S.D. *=p<0.05. RQ=relative quantity.

[6] = system: VCaP xenograft tumors; type: in vivo, mice
Source text: as §1

[7] = system: human primary prostate tumor explants; assay: Human primary prostate tumor explants; conditions: human prostate cancer explants
Procedure: as §2

[8] = system: PC3 cells; assay: Boyden chamber migration and invasion assay, crystal violet quantification; type: cell-based; conditions: PC3 cells (AR-negative)
Source text: as §3

[9] = system: Wnt pathway genes in C4-2 cells; assay: Expression of Wnt pathway genes after DNAPK inhibition; type: cell-based
Source text: FIG. 8 provides: Expression of Wnt pathway genes in C4-2 cells after inhibition (NU7441) (panel A) or knockdown (panel B) of DNAPK; and Expression of Notch pathway genes in LNCaP-AR, PC3 and C4-2 cells after knockdown of DNAPK (panel C). GAPDH was used as internal reference, bars are mean±S.D. *=p<0.05. RQ=relative quantity.

[10] = system: PC3 cells; assay: Cell growth curves after DNAPK inhibition; type: cell-based
Source text: as §3

[11] = system: C4-2 cells; assay: Cell growth curves after DNAPK inhibition; type: cell-based
Source text: as §3

[12] = system: LNCaP-AR cells; assay: Cell growth curves after DNAPK inhibition; type: cell-based
Source text: as §3

[13] = system: active beta-catenin and cMyc in C4-2 cells; assay: Immunoblot of active beta catenin and cMyc with or without Wnt3A stimulation; type: cell-based; conditions: baseline and Wnt3A-induced
Source text: as §4

[14] = system: active beta-catenin and cMyc in LNCaP-AR cells; assay: as above; type: cell-based; conditions: baseline and Wnt3A-induced
Source text: as §4

[15] = system: TOPFLASH reporter in PC3 cells; assay: TOPFLASH luciferase reporter activity; type: cell-based; conditions: baseline and Wnt3A-induced, normalized to renilla luciferase
Source text: FIG. 5 provides: Immunoblot analyses of DNAPK, KU70 and LEF1 after DNAPK immunoprecipitation (left), and LEF1 and DNAPK after LEF1 immunoprecipitation (right) in LNCaP-AR cells (panel A); TOPFLASH luciferase reporter activity in PC3 cells after DNAPK inhibition (NU7441) and/or Wnt3A stimulation; activity is normalized to renilla luciferase (panel B); and Representative images (200×) and crystal violet quantification of LNCaP-AR and C4-2 cell invasion and migration after DNAPK, LEF1 or beta catenin (CTNNB1) knockdown by siRNA. *=p<0.05 compared to respective controls, #=p<0.05 compared to Wnt3A (panel C). All graphs are mean±S.D. siNTC=non targeting siRNA control.

[16] = system: Wnt pathway genes in LNCaP-AR cells; assay: Expression of Wnt pathway genes after DNAPK inhibition; type: cell-based
Source text: as §4

[17] = C4-2 (CRPC) cells, baseline and Wnt3A-induced
[18] = LNCaP-AR (CRPC) cells, baseline and Wnt3A-induced

CCN1C(=O)CNc2ncc(-c3ccc(-c4nc[nH]n4)nc3C)nc21 [Compound 1, 1-ethyl-7-(2-methyl-6-(1H-1,2,4-triazol-3-yl)pyridin-3-yl)-3,4-dihydropyrazino[2,3-b]pyrazin-2(1H)-one]
regression of AR-independent PC3 tumors [1]: significant regression | median tumor tripling time ([2]; 5 times weekly oral gavage): 29.5 days | tumor regression ([2]; pre-castrated conditions, 2 mg/kg, 5 times weekly oral gavage, comparator enzalutamide 10 mg/kg): significantly better tumor regression compared to enzalutamide | invasion [3, 17]: abrogated | migration [3, 17]: abrogated | invasion [4, 18]: abrogated | migration [4, 18]: abrogated | invasion [5]: significantly reduced | migration [5]: significantly reduced | toxicity (body weight) ([6]; mouse, in vivo, 2 mg/kg): non-toxic | tumor growth ([6]; various doses, once daily oral gavage, 5 times per week for 6 weeks, best observed at 2 mg/kg): dose-dependent reduction

O=c1cc(N2CCOCC2)oc2c(-c3cccc4c3sc3ccccc34)cccc12 [NU7441]
Wnt target gene expression [7]: marked reduction | proliferative index, as determined by Ki67 levels [7]: marked reduction | invasion [8]: drastically diminished | migration [8]: drastically diminished | Wnt pathway genes expression [9]: robust reduction | proliferation [10]: drastically diminished | proliferation [11]: drastically diminished | proliferation [12]: drastically diminished | levels of active beta-catenin [13]: reduced | levels of cMyc [13]: reduced | levels of active beta-catenin [14]: reduced | levels of cMyc [14]: reduced | TOPFLASH reporter activity [15]: significantly reduced | Wnt pathway genes expression [16]: robust reduction | reduction in tumor growth compared to control ([2]; castrated mice, 25 mg/kg daily): 44% | relative tumor volume ([2]; castrated mice, 25 mg/kg daily, fold change in final tumor volume, vehicle 8.57±1.45): 4.84±1.97 | median tumor doubling time ([2]; castrated mice, 25 mg/kg daily, vehicle 7 days): 21.5 days | toxicity as measured by body weight ([2]; mouse, in vivo): minimal | invasion [3, 17]: abrogated | migration [3, 17]: abrogated | invasion ([3]; C4-2 cells (AR-positive)): drastically diminished | migration ([3]; C4-2 cells (AR-positive)): drastically diminished | invasion [4, 18]: abrogated | migration [4, 18]: abrogated | invasion ([4]; LNCaP-AR cells (AR-positive)): drastically diminished | migration ([4]; LNCaP-AR cells (AR-positive)): drastically diminished | invasion [5]: significantly reduced | migration [5]: significantly reduced

CNC(=O)c1ccc(N2C(=S)N(c3ccc(C#N)c(C(F)(F)F)c3)C(=O)C2(C)C)cc1F [enzalutamide]
median tumor tripling time ([2]; 5 times weekly oral gavage): 23.5 days
